In the test the test system is PMA-induced release of IL-6R from PBMCs from patients suffering from rheumatoid arthritis. Kind of test: ELISA-based IL-6R release assay, PBMCs from RA-patients. The note with it: Homo sapiens, PBMC; chimeric antibodies (CHO) 1 μg/ml; Batimastat 10 μM; PMA 25 ng/ml, 24 hours. Format: cell-based. The procedure:
In contrast to Example 34, where the inhibitory effects of the antibodies of the present disclosure on PMA-induced release of endogenous IL-6R from primary human material obtained from healthy donors using peripheral blood mononuclear cells (PBMCs) were tested, this analysis was conducted to analyze the inhibitory effects of the antibodies of the present disclosure on PMA-induced release of endogenous IL-6R from primary human material obtained from patients suffering from rheumatoid arthritis (RA-patients).
In brief, on day 1, Nunc black MaxiSorp® 96-well plates (Thermo Fisher Scientific, USA) were coated overnight with 100 μl per well of mouse anti-human IL-6R capture antibody (provided as part of the DuoSet ELISA kit) at 4 μg/ml TBS at 4° C. […] Using an infinite M1000 (Tecan Group, Switzerland) microplate reader, the fluorescence of each well was collected at an excitation wavelength of 435 nm and an emission wavelength of 555 nm.
On the technique in general: An ELISA detects its analyte on a solid surface through an enzyme-linked reagent.

The term inhibition denotes the relative decrease from the control value, in per cent.

In the case of `CNC(=O)[C@H](Cc1ccccc1)NC(=O)[C@H](CC(C)C)[C@H](CSc1cccs1)C(=O)NO` [Batimastat], the inhibition at 10 µM was determined as 104%.

The record behind these values is patent US20240174744A1, “METHODS OF TREATMENT USING PROTEIN BINDERS TO IRHOM2 EPITOPES” (SCIRHOM GMBH, priority 2021, published 2024).
